{"source": "ChEMBL document CHEMBL1148480", "about": "“Structure-activity studies of orexin a and orexin B at the human orexin 1 and orexin 2 receptors led to orexin 2 receptor selective and orexin 1 receptor preferring ligands” (J Med Chem, 2004)", "note": "Non-standard residues stand in square brackets, D forms with d. Residues, ends and D or L forms follow the SMILES beside them. pGlu = O=C1CC[C@@H](C(=O)O)N1; Ahx = NCCCCCC(=O)O", "data": [{"biological_target": "T1, Orexin/Hypocretin receptor type 1 (Homo sapiens, UniProt O43613)", "T1 sequence (O43613 whole entry)": "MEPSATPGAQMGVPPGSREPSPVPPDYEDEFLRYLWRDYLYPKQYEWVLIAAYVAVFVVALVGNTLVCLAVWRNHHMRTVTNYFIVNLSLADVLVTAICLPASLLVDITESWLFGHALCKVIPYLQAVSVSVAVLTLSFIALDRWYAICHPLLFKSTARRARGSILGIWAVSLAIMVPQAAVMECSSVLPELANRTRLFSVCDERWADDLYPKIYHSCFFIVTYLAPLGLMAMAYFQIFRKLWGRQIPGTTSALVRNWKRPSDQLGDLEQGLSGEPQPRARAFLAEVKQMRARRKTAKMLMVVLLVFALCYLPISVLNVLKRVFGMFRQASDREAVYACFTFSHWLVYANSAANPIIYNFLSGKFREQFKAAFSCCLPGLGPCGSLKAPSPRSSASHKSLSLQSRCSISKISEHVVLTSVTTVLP", "assay": "Effective agonist concentration to human orexin receptor type 1 determined using the Xlfit program", "format": "functional", "units": {"EC50": "µM"}, "values": [{"smiles": "CC[C@H](C)[C@H](NC(=O)CNC(=O)[C@H](C)NC(=O)[C@H](C)NC(=O)[C@H](Cc1c[nH]cn1)NC(=O)[C@H](CC(N)=O)NC(=O)CNC(=O)[C@H](C)NC(=O)CNC(=O)[C@H](Cc1c[nH]cn1)NC(=O)[C@H](CC(C)C)NC(=O)[C@H](CC(C)C)NC(=O)CCCCCNC(=O)[C@H](CC(=O)O)NC(=O)[C@@H]1CCCN1C(=O)[C@H](CC(C)C)NC(=O)[C@@H]1CCCN1C(=O)[C@@H]1CCC(=O)N1)C(=O)N[C@@H](CC(C)C)C(=O)N[C@H](C(=O)N[C@@H](CC(C)C)C(=O)O)[C@@H](C)O", "note": "([pGlu]PLPD[Ahx]LLHGAGNHAAGILTL-OH)", "EC50": "> 1000"}, {"smiles": "CC[C@H](C)[C@H](NC(=O)CNC(=O)[C@H](C)NC(=O)[C@H](C)NC(=O)[C@H](Cc1cnc[nH]1)NC(=O)[C@H](CC(N)=O)NC(=O)CNC(=O)[C@H](C)NC(=O)CNC(=O)[C@H](Cc1cnc[nH]1)NC(=O)[C@H](CC(C)C)NC(=O)[C@H](CC(C)C)NC(=O)[C@H](CCC(=O)O)NC(=O)[C@H](Cc1ccc(O)cc1)NC(=O)[C@H](CC(C)C)NC(=O)[C@H](CCCNC(=N)N)NC(=O)CCCCCNC(=O)[C@H](CC(=O)O)NC(=O)[C@@H]1CCCN1C(=O)[C@H](CC(C)C)NC(=O)[C@@H]1CCCN1C(=O)[C@@H]1CCC(=O)N1)C(=O)N[C@@H](CC(C)C)C(=O)N[C@H](C(=O)N[C@@H](CC(C)C)C(=O)O)[C@@H](C)O", "note": "([pGlu]PLPD[Ahx]RLYELLHGAGNHAAGILTL-OH)", "EC50": 5.52}, {"smiles": "CC[C@H](C)[C@H](NC(=O)CNC(=O)[C@H](C)NC(=O)[C@H](C)NC(=O)[C@H](Cc1c[nH]cn1)NC(=O)[C@H](CC(N)=O)NC(=O)CNC(=O)[C@H](CO)NC(=O)[C@H](C)NC(=O)[C@H](CCC(N)=O)NC(=O)[C@H](CC(C)C)NC(=O)[C@H](CC(C)C)NC(=O)[C@H](CCCN=C(N)N)NC(=O)[C@@H]1CCCN1C(=O)[C@H](CC(C)C)NC(=O)[C@H](CCCN=C(N)N)NC(=O)CNC(=O)[C@H](CCC(N)=O)NC(=O)[C@H](CC(C)C)NC(=O)CN)C(=O)N[C@@H](CC(C)C)C(=O)N[C@H](C(=O)N[C@@H](CCSC)C(N)=O)[C@@H](C)O", "note": "(stereo in doubt; form 1)", "EC50": 5.26}]}, {"biological_target": "T2, Orexin receptor type 2 (Homo sapiens, UniProt O43614)", "T2 sequence (O43614 whole entry)": "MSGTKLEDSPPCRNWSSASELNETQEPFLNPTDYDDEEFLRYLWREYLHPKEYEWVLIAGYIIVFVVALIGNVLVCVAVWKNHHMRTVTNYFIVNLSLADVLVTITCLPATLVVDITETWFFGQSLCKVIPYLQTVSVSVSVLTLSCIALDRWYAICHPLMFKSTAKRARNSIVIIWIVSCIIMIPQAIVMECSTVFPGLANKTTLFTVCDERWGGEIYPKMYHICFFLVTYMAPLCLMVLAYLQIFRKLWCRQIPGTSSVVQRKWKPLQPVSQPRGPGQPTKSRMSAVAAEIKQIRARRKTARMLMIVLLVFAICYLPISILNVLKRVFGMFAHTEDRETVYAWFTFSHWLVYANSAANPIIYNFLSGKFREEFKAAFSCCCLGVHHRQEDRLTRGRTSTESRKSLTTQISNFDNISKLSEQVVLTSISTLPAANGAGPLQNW", "assay": "Effective agonist concentration to the human Orexin receptor type 2 was determined using the Xlfit program", "format": "functional", "units": {"EC50": "µM"}, "values": [{"smiles": "CC[C@H](C)[C@H](NC(=O)[C@H](Cc1cnc[nH]1)NC(=O)[C@H](CC(N)=O)NC(=O)CNC(=O)[C@H](CO)NC(=O)[C@H](C)NC(=O)[C@H](CCC(N)=O)NC(=O)[C@H](CC(C)C)NC(=O)[C@H](CC(C)C)NC(=O)[C@H](CCCNC(=N)N)NC(=O)[C@H](CCC(N)=O)NC(=O)[C@H](CC(C)C)NC(=O)[C@H](CCCNC(=N)N)NC(=O)CNC(=O)[C@H](CCC(N)=O)NC(=O)[C@H](CC(C)C)NC(=O)CN)C(=O)N[C@@H](C)C(=O)NCC(=O)N[C@@H](C)C(=O)N[C@@H](CC(C)C)C(=O)N[C@H](C(=O)N[C@@H](CCSC)C(=O)O)[C@@H](C)O", "EC50": 3.15}, {"smiles": "CC[C@H](C)[C@H](NC(=O)CNC(=O)[C@H](C)NC(=O)[C@H](C)NC(=O)[C@H](Cc1cnc[nH]1)NC(=O)[C@H](CC(N)=O)NC(=O)CNC(=O)[C@H](CO)NC(=O)[C@H](C)NC(=O)[C@H](CCC(N)=O)NC(=O)[C@H](CC(C)C)NC(=O)[C@H](CC(C)C)NC(=O)[C@H](CCCNC(=N)N)NC(=O)[C@H](CCC(N)=O)NC(=O)[C@H](CC(C)C)NC(=O)[C@H](CCCNC(=N)N)NC(=O)CNC(=O)[C@H](C)NC(=O)[C@H](CC(C)C)NC(=O)CN)C(=O)N[C@@H](CC(C)C)C(=O)N[C@H](C(=O)N[C@@H](CCSC)C(=O)O)[C@@H](C)O", "note": "(H-GLAGRLQRLLQASGNHAAGILTM-OH)", "EC50": 0.24}, {"smiles": "CC[C@H](C)[C@H](NC(=O)CNC(=O)[C@H](C)NC(=O)[C@H](C)NC(=O)[C@H](Cc1cnc[nH]1)NC(=O)[C@H](CC(N)=O)NC(=O)CNC(=O)[C@H](CO)NC(=O)[C@H](C)NC(=O)[C@H](CCC(N)=O)NC(=O)[C@H](CC(C)C)NC(=O)[C@H](CC(C)C)NC(=O)[C@@H]1CCCN1C(=O)[C@H](CCC(N)=O)NC(=O)[C@H](CC(C)C)NC(=O)[C@H](CCCNC(=N)N)NC(=O)CNC(=O)[C@H](CCC(N)=O)NC(=O)[C@H](CC(C)C)NC(=O)CN)C(=O)N[C@@H](CC(C)C)C(=O)N[C@H](C(=O)N[C@@H](CCSC)C(=O)O)[C@@H](C)O", "note": "(H-GLQGRLQPLLQASGNHAAGILTM-OH)", "EC50": 0.68}]}]}
